According to patent US20050281750A1, “Sprayable compositions comprising a combination of pharmaceutical active agents, an alcohol phase, at least one volatile silicone and a non-volatile oily phase” (GALDERMA S.A., priority 2004, published 2005):

Tests used:
Assay type in all cases: physicochemical
[1] = Stability of calcitriol in Miglyol 812 (caprylic/capric triglycerides) (HPLC assay); settings: for Measured concentration of calcitriol in % relative to T0: 30 ppm in Miglyol 812, 0.4% BHT
Text: (§1) Calcitriol stability data were generated in various excipients, including ethanol 100, an ethanol 100 (75%)/cyclomethicone 5 (25%) mixture, or oils such as Miglyol 812 and Cetiol SN. • a) Stability of Calcitriol in Ethanol: c) Stability of Calcitriol in Miglyol 812 (Caprylic/Capric Triglycerides): Solution of 30 ppm of calcitriol in qsp 100% of Miglyol 812, in the presence of 0.4% of BHT. Technique of HPLC assay against a reference substance. At the starting time (T0) the composition is considered to comprise 100% of calcitriol. Measured concentration of calcitriol in % relative to T0: […]

[2] = Stability of calcitriol in ethanol (HPLC assay against a reference substance); settings: for Measured concentration of calcitriol in % relative to T0: 30 ppm in absolute ethanol, 0.02% BHT
Text: as §1, with “Ethanol:” for “Ethanol: c) Stability of Calcitriol in Miglyol 812 (Caprylic/Capric Triglycerides):”, “absolute ethanol,” for “Miglyol 812,”, “0.02%” for “0.4%”

[3] = Stability of calcitriol in ethanol/cyclopentasiloxane (HPLC assay against a reference substance); settings: for Measured concentration of calcitriol in % relative to T0: 30 ppm in 75% absolute ethanol + 25% cyclopentasiloxane, 0.02% BHT
Text: as §1, with “Ethanol: b)” for “Ethanol: c)”, “in Ethanol/Cyclopentasiloxane:” for “in Miglyol 812 (Caprylic/Capric Triglycerides):”, “qsp 75%” for “qsp 100%”, “of absolute ethanol+25% of cyclopentasiloxane,” for “of Miglyol 812,”, “of 0.02%” for “of 0.4%”

[4] = Stability of calcitriol in Cetiol SN (cetearyl isononanoate) (HPLC assay); settings: for Measured concentration of calcitriol in % relative to T0: 30 ppm in Cetiol SN, 0.4% BHT
Text: as §1, with “d)” for “c)”, “Cetiol SN (Cetearyl Isononanoate):” for “Miglyol 812 (Caprylic/Capric Triglycerides):”, “Cetiol SN (cetearyl isononanoate),” for “Miglyol 812,”

- Measured concentration of calcitriol in % relative to T0 ([1]; +4° C., T 2 weeks): 98.3%
- Measured concentration of calcitriol in % relative to T0 ([1]; +4° C., T 4 weeks): 105.2%
- Measured concentration of calcitriol in % relative to T0 ([1]; +40° C., T 2 weeks): 91%
- Measured concentration of calcitriol in % relative to T0 ([1]; +40° C., T 4 weeks): 93.8%
- Measured concentration of calcitriol in % relative to T0 ([1]; RT, T 2 weeks): 95.1%
- Measured concentration of calcitriol in % relative to T0 ([1]; RT, T 4 weeks): 98.0%
- Stability of calcitriol (in words) ([1]; in Miglyol 812): good stability
- Measured concentration of calcitriol in % relative to T0 ([2]; +4° C., T 1 week): 97.7%
- Measured concentration of calcitriol in % relative to T0 ([2]; +4° C., T 2 weeks): 98.6%
- Measured concentration of calcitriol in % relative to T0 ([2]; +4° C., T 3 weeks): 98.1%
- Measured concentration of calcitriol in % relative to T0 ([2]; +4° C., T 4 weeks): 97.7%
- Measured concentration of calcitriol in % relative to T0 ([2]; +30° C., T 2 weeks): 93.4%
- Measured concentration of calcitriol in % relative to T0 ([2]; +30° C., T 4 weeks): 93.0%
- Measured concentration of calcitriol in % relative to T0 ([2]; −18° C., T 1 week): 100.9%
- Measured concentration of calcitriol in % relative to T0 ([2]; −18° C., T 2 weeks): 100.5%
- Measured concentration of calcitriol in % relative to T0 ([2]; −18° C., T 3 weeks): 99.5%
- Measured concentration of calcitriol in % relative to T0 ([2]; −18° C., T 4 weeks): 99.5%
- Stability of calcitriol (in words) ([2]; in ethanol): good stability
- Measured concentration of calcitriol in % relative to T0 ([3]; +4° C., T 2 weeks): 99.2%
- Measured concentration of calcitriol in % relative to T0 ([3]; +4° C., T 3 weeks): 99.6%
- Measured concentration of calcitriol in % relative to T0 ([3]; +4° C., T 4 weeks): 97.5%
- Measured concentration of calcitriol in % relative to T0 ([3]; +30° C., T 2 weeks): 93.8%
- Measured concentration of calcitriol in % relative to T0 ([3]; +30° C., T 4 weeks): 93.3%
- Measured concentration of calcitriol in % relative to T0 ([3]; −18° C., T 2 weeks): 100.4%
- Measured concentration of calcitriol in % relative to T0 ([3]; −18° C., T 3 weeks): 101.3%
- Measured concentration of calcitriol in % relative to T0 ([3]; −18° C., T 4 weeks): 99.2%
- Stability of calcitriol (in words) ([3]; in an ethanol/cyclopentasiloxane mixture): good stability
- Measured concentration of calcitriol in % relative to T0 ([4]; +4° C., T 2 weeks): 98.6%
- Measured concentration of calcitriol in % relative to T0 ([4]; +4° C., T 4 weeks): 98.1%
- Measured concentration of calcitriol in % relative to T0 ([4]; +40° C., T 2 weeks): 99.0%
- Measured concentration of calcitriol in % relative to T0 ([4]; +40° C., T 4 weeks): 98.9%
- Measured concentration of calcitriol in % relative to T0 ([4]; RT, T 2 weeks): 98.7%
- Measured concentration of calcitriol in % relative to T0 ([4]; RT, T 4 weeks): 98.4%
- Stability of calcitriol (in words) ([4]; in Cetiol SN): good stability
SMILES: C=C1/C(=C\C=C2/CCC[C@]3(C)[C@@H]([C@H](C)CCCC(C)(C)O)CC[C@@H]23)C[C@@H](O)C[C@@H]1O [calcitriol]
